# Reference: patent US9546158B2, “2,5-substituted pyrimidines” (Grünenthal GmbH, priority 2014, dated 2017)
# Target: T1, human PDE4B1 (Homo sapiens, UniProt Q07343)
# T1 construct: host or cells: Sf9 cells
# Test: cAMP HTRF assay to determine the activity of hPDE4B1
# Type: biochemical
# Settings: test substrate concentration of 1 μM, read-out: Inhibition of PDE4B, Inhibition in %
# Experimental: cAMP HTRF® Assay to Determine the Activity of hPDE4B1
# The inhibiting effect of the compounds on the enzyme activity of human PDE4B1 was measured by the quantification of 5′-adenosine monophosphate (5′-AMP), which is formed from 3′,5′-cyclic adenosine monophosphate (cAMP). Human recombinant enzyme, expressed in Sf9 cells, and the HTRF (homogeneous time-resolved fluorescence) detection method were used in the assay.
# The test compound or water (control) was mixed with the human recombinant PDE4B1 enzyme (4.8 U) in a buffer consisting of 44.4 mM tris-HCl, 5.28 mM MgCl2, 2.64 mM DTT and 0.044% Tween 20 (pH 7.8). After adding the cAMP enzyme substrate (final concentration 40 nM), the mixture was incubated for 30 minutes at room temperature. Then a fluorescence acceptor (Dye2 marked with cAMP), a fluorescence donor (anti-cAMP antibody marked with a europium cryptate) and the non-specific phosphodiesterase inhibitor IBMX (3-isobutyl-1-methylxanthine; final concentration 1 mM) were added. After 60 minutes the fluorescence transfer, which correlates with the amount of remaining cAMP, was measured with a microplate reader (Rubystar, BMG) at λex=337 nm, λem=620 nm and λem=665 nm. The enzyme activity was calculated from the quotient formed from the measured signal at 665 nm and that at 620 nm. The result was expressed as the percentage inhibition of enzyme activity of the control (without PDE4 inhibitor). The enzyme was omitted for measurement of the basal control. IC50 values (IC50=concentration causing a half-maximal inhibition of control specific activity) were derived from dose response measurements with eight different concentrations (n=2; N=1-3).
# Literature: N. Saldou et al., Comparison of recombinant human PDE4 isoforms: interaction with substrate and inhibitors, Cell. Signal. Vol. 10, No. 6, 427-440, 1998
# T1 sequence (Q07343 whole entry): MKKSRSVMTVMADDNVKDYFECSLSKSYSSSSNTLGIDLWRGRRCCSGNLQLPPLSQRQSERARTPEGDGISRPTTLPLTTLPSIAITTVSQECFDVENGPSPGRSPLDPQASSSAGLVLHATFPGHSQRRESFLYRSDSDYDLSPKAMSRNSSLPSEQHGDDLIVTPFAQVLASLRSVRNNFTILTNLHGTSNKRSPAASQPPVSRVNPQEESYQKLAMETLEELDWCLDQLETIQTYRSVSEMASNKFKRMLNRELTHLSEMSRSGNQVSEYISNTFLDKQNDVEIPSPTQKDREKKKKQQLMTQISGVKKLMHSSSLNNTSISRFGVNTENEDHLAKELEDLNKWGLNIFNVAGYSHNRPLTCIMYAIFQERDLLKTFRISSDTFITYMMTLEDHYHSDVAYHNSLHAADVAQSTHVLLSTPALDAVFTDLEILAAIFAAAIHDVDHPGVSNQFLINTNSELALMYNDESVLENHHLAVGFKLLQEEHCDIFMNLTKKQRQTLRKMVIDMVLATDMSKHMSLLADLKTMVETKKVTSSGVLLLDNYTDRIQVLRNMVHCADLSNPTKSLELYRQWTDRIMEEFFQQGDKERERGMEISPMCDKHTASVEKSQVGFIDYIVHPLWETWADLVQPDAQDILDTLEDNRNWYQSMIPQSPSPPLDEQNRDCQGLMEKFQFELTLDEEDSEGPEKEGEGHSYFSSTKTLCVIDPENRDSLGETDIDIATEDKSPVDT
row,inhibition at 1 µM [%],SMILES
1,61,"CC1COCCN1C(=O)c1cc2c(cn1)c(C1CC1)nn2-c1ncc(-c2ccccc2F)cn1 (stereo not shown) [compound 44, (3-Cyclopropyl-1-(5-(2-fluorophenyl)pyrimidin-2-yl)-1H-pyrazolo[4,3-c]pyridin-6-yl)(3-methylmorpholino)methanone]"
2,69,"COCCNC(=O)c1cc2c(cn1)c(C1CC1)nn2-c1ncc(-c2ccccc2F)cn1 [compound 41, 3-Cyclopropyl-1-(5-(2-fluorophenyl)pyrimidin-2-yl)-N-(2-methoxyethyl)-1H-pyrazolo[4,3-c]pyridine-6-carboxamide]"
3,73,"CCN(C)C(=O)c1cc2c(cn1)c(C1CC1)nn2-c1ncc(-c2ccccc2F)cn1 [compound 37, 3-Cyclopropyl-N-ethyl-1-(5-(2-fluorophenyl)pyrimidin-2-yl)-N-methyl-1H-pyrazolo[4,3-c]pyridine-6-carboxamide]"
4,54,"CC1COCC(C)N1C(=O)c1cc2c(cn1)c(C1CC1)nn2-c1ncc(-c2ccccc2F)cn1 (stereo not shown) [compound 49, (3-Cyclopropyl-1-(5-(2-fluorophenyl)pyrimidin-2-yl)-1H-pyrazolo[4,3-c]pyridin-6-yl)(3,5-dimethylmorpholino)methanone]"
5,59,"O=C(c1cc2c(cn1)c(C1CC1)nn2-c1ncc(-c2ccccc2F)cn1)N1CCC1 [compound 35, Azetidin-1-yl(3-cyclopropyl-1-(5-(2-fluorophenyl)pyrimidin-2-yl)-1H-pyrazolo[4,3-c]pyridin-6-yl)methanone]"
6,67,"O=C(NCCn1cncn1)c1cc2c(cn1)c(C1CC1)nn2-c1ncc(-c2ccccc2F)cn1 [compound 47, N-(2-(1H-1,2,4-Triazol-1-yl)ethyl)-3-cyclopropyl-1-(5-(2-fluorophenyl)pyrimidin-2-yl)-1H-pyrazolo[4,3-c]pyridine-6-carboxamide]"
7,85,"O=C(c1cc2c(cn1)c(C1CC1)nn2-c1ncc(-c2ccccc2F)cn1)N1CCCC1 [compound 38, (3-Cyclopropyl-1-(5-(2-fluorophenyl)pyrimidin-2-yl)-1H-pyrazolo[4,3-c]pyridin-6-yl)(pyrrolidin-1-yl)methanone]"
8,43,"COC[C@@H]1CCCN1C(=O)c1cc2c(cn1)c(C1CC1)nn2-c1ncc(-c2ccccc2F)cn1 [compound 48, (S)-(3-Cyclopropyl-1-(5-(2-fluorophenyl)pyrimidin-2-yl)-1H-pyrazolo[4,3-c]pyridin-6-yl)(2-(methoxymethyl)pyrrolidin-1-yl)methanone]"

# The remaining lines, values behind:
row,SMILES,inhibition at 1 µM [%]
1,"O=C(c1ccc2c(C3CC3)nn(-c3ncc(-c4ccccc4F)cn3)c2c1)N1CCOCC1 [Compound No. 4, (3-Cyclopropyl-1-(5-(2-fluorophenyl)pyrimidin-2-yl)-1H-indazol-6-yl)(morpholino)methanone]",106
2,"COc1ccc(F)c(-c2cnc(-n3nc(C(C)O)c4ccc(C(=O)N5CCOCC5)cc43)nc2)c1 (stereo not shown) [Compound No. 21, (1-(5-(2-Fluoro-5-methoxyphenyl)pyrimidin-2-yl)-3-(1-hydroxyethyl)-1H-indazol-6-yl)(morpholino)methanone]",112
3,"CC(O)c1nn(-c2ncc(-c3ccccc3)cn2)c2cc(C(=O)N3CCOCC3)ccc12 (stereo not shown) [Compound No. 19, (3-(1-Hydroxyethyl)-1-(5-phenylpyrimidin-2-yl)-1H-indazol-6-yl)(morpholino)methanone]",112
4,"CC(O)c1nn(-c2ncc(-c3cc(C#N)ccc3F)cn2)c2cc(C(=O)N3CCOCC3)ccc12 (stereo not shown) [Compound No. 22, 4-Fluoro-3-(2-(3-(1-hydroxyethyl)-6-(morpholine-4-carbonyl)-1H-indazol-1-yl)pyrimidin-5-yl)benzonitrile]",112
5,"NC(=O)c1nn(-c2ncc(-c3ccccc3F)cn2)c2cc(C(=O)N3CCOCC3)ccc12 [Compound No. 3, 1-(5-(2-Fluorophenyl)pyrimidin-2-yl)-6-(morpholine-4-carbonyl)-1H-indazole-3-carboxamide]",83

# Target: T1, human PDE4B1
# Test: TR-FRET assay using the LANCE Ultra cAMP kit to determine the activity of hPDE4B1
# Type: biochemical
# Settings: test substrate concentration of 10 μM, read-out: Inhibition of PDE4B, Inhibition in %
# From the text: TR-FRET Assay Using the LANCE® Ultra cAMP Kit to Determine the Activity of hPDE4B1
# The effects of the compounds on the activity of the human PDE4B1 was quantified by measuring the production of 5′AMP from cAMP using a human recombinant enzyme expressed in Sf9 cells and the LANCE® Ultra cAMP kit, a TR-FRET detection method from PerkinElmer. The human PDE4B1 enzyme was purchased from SignalChem Lifesciences (Catalog #P92-31BG, Lot #H296-2).
# The test compound, reference compound or water (control) was mixed with the enzyme (0.96 U) in a reaction buffer containing 50 mM Tris-HCl, 50 mM MgCl2 and 5 mM DTT (pH 8.5). Thereafter, the reaction was initiated by addition of 500 nM cAMP (substrate) and the mixture was incubated for 30 minutes at room temperature. For control basal measurements, the enzyme was omitted from the reaction mixture. After 30 minutes, the reaction was stopped and diluted by a factor of 100 with the reaction buffer supplemented with 500 μM IBMX. The fluorescence donor (europium chelate-labeled cAMP) and the fluorescence acceptor (anti-cAMP antibody labeled with the ULight™ dye) were then added together with 500 μM IBMX to a 10 μl aliquot. After 60 minutes, the fluorescence transfer corresponding to the amount of residual cAMP was measured at λex=337 nm, λem=620 nm and λem=665 nm using a microplate reader (PHERAstar, BMG). The enzyme activity was determined by dividing the signal measured at 665 nm by that measured at 620 nm (ratio) multiplied by 10000. The results were expressed as percent inhibition of the control enzyme activity. IC50 values (IC50=concentration causing a half-maximal inhibition of control specific activity) were derived from dose response measurements with ten different concentrations (n=3; N=1-3).
row,inhibition at 10 µM [%],SMILES
1,107,"Cc1ccc(F)c(-c2cnc(-n3nc(C(C)O)c4ccc(C(=O)N5CCOCC5)cc43)nc2)c1 (stereo not shown) [Compound No. 34, (1-(5-(2-Fluoro-5-methylphenyl)pyrimidin-2-yl)-3-(1-hydroxyethyl)-1H-indazol-6-yl)(morpholino)methanone]"
2,100,"Cc1ccc(F)c(-c2cnc(-n3nc([S+](C)[O-])c4ccc(C(=O)N5CCOCC5)cc43)nc2)c1 (single isomer, unassigned) [Compound No. 65, (1-(5-(2-Fluoro-5-methylphenyl)pyrimidin-2-yl)-3-(methylsulfinyl)-1H-indazol-6-yl)(morpholino)methanone]"
3,102,"CC(O)c1nn(-c2ncc(-c3cccc(C4CC4)c3)cn2)c2cc(C(=O)N3CCOCC3)ccc12 (stereo not shown) [Compound No. 76, (1-(5-(3-Cyclopropylphenyl)pyrimidin-2-yl)-3-(1-hydroxyethyl)-1H-indazol-6-yl)(morpholino)methanone]"
4,90,"Cc1ccc(F)c(-c2cnc(-n3nc(C(C)O)c4ccc(C(=O)N(C)CC(N)=O)cc43)nc2)c1 (stereo not shown) [Compound No. 67, N-(2-Amino-2-oxoethyl)-1-(5-(2-fluoro-5-methylphenyl)pyrimidin-2-yl)-3-(1-hydroxyethyl)-N-methyl-1H-indazole-6-carboxamide]"
5,105,Cc1ccnc(-c2cnc(-n3nc(C(C)O)c4ccc(C(=O)N5CCOCC5)cc43)nc2)c1 (stereo not shown) [Compound No. 70]
6,102,"CCOc1ccc(F)c(-c2cnc(-n3nc(C(C)O)c4ccc(C(=O)N5CCOCC5)cc43)nc2)c1 (stereo not shown) [Compound No. 74, (1-(5-(5-Ethoxy-2-fluorophenyl)pyrimidin-2-yl)-3-(1-hydroxyethyl)-1H-indazol-6-yl)(morpholino)methanone]"
7,77,"CCc1ccc(F)c(-c2cnc(-n3nc(C(C)O)c4ccc(C(=O)N5CCOCC5)cc43)nc2)c1 (stereo not shown) [Compound No. 69, (1-(5-(5-Ethyl-2-fluorophenyl)pyrimidin-2-yl)-3-(1-hydroxyethyl)-1H-indazol-6-yl)(morpholino)methanone]"
8,108,"COc1ccnc(-c2cnc(-n3nc(C(C)O)c4ccc(C(=O)N5CCOCC5)cc43)nc2)c1 (stereo not shown) [Compound No. 71, (3-(1-Hydroxyethyl)-1-(5-(4-methoxypyridin-2-yl)pyrimidin-2-yl)-1H-indazol-6-yl)(morpholino)methanone]"
9,96,"Cc1ccc(F)c(-c2cnc(-n3nc([S+](C)[O-])c4ccc(C(=O)N5CCOCC5)cc43)nc2)c1 (stereo not shown) [Compound No. 32, (1-(5-(2-Fluoro-5-methylphenyl)pyrimidin-2-yl)-3-(methylsulfinyl)-1H-indazol-6-yl)(morpholino)methanone]"
10,105,"CC(O)c1nn(-c2ncc(-c3cc(C4CC4)ccn3)cn2)c2cc(C(=O)N3CCOCC3)ccc12 (stereo not shown) [Compound No. 73, (1-(5-(4-Cyclopropylpyridin-2-yl)pyrimidin-2-yl)-3-(1-hydroxyethyl)-1H-indazol-6-yl)(morpholino)methanone]"
11,105,"Cc1ccc(F)c(-c2cnc(-n3nc(C(C)O)c4ccc(C(=O)N(C)CCO)cc43)nc2)c1 (stereo not shown) [Compound No. 66, 1-(5-(2-Fluoro-5-methylphenyl)pyrimidin-2-yl)-3-(1-hydroxyethyl)-N-(2-hydroxyethyl)-N-methyl-1H-indazole-6-carboxamide]"
12,102,"Cc1ccc(F)c(-c2cnc(-n3nc(S(C)(=O)=O)c4ccc(C(=O)N5CCOCC5)cc43)nc2)c1 [Compound No. 33, (1-(5-(2-Fluoro-5-methylphenyl)pyrimidin-2-yl)-3-(methylsulfonyl)-1H-indazol-6-yl)(morpholino)methanone]"
